Source: patent publication US4367339A, “Substituted N-nitroaniline compounds and inorganic and organic salts thereof useful for enhancing auxiliary branching, canopy flowering and crop yield of plant and as lodging inhibitors therefor” (priority 1980, dated 1983)
Structures can show the parent of a compound that is named as a salt.

Test system: barley (Hordeum vulgare, var. Georgie)
Assay: Antilodging effects on barley
Type: in vivo
Design: key to Tiller formation / Stem stiffness: 5 = no increase over controls, 3 = moderate significant increase
Conditions: for Stem stiffness / Tiller formation: control 5; for Weight Dry: control 5.2; for Weight Fresh: control 49.1; for Height: control 53.1; for Phytotoxicity: three weeks after spraying
Method: In this experiment the procedure of Example 7 is repeated excepting that the crop used was barley (Hordeum vulgare, var. Georgie; European lodging prone variety). The plants are treated at the 3-4 leaf stage. Plants are watered prior to treatment and then sprayed to provide the kg/ha rate of test compound desired. After spraying the plants are placed on greenhouse benches and watered and fertilized in accordance with normal greenhouse procedures.
Three weeks after spraying the plants are measured and harvested. All treatments are replicated six times and companions are made against untreated controls.
The following rating system is used:
5=No increase over controls
3=Moderate, significant increase over controls.

Row | Structure (SMILES) | Stem stiffness (rate 0.25 kg/ha) | Tiller formation (rate 0.25 kg/ha) | Weight Dry (rate 0.25 kg/ha) [g] | Weight Fresh (rate 0.25 kg/ha) [g] | Height (rate 0.25 kg/ha) [cm] | Phytotoxicity (rate 0.25 kg/ha) | Stem stiffness (rate 0.5 kg/ha) | Tiller formation (rate 0.5 kg/ha) | Weight Dry (rate 0.5 kg/ha) [g] | Weight Fresh (rate 0.5 kg/ha) [g] | Height (rate 0.5 kg/ha) [cm] | Phytotoxicity (rate 0.5 kg/ha) | Stem stiffness (rate 1.0 kg/ha) | Tiller formation (rate 1.0 kg/ha) | Weight Dry (rate 1.0 kg/ha) [g] | Weight Fresh (rate 1.0 kg/ha) [g] | Height (rate 1.0 kg/ha) [cm] | Phytotoxicity (rate 1.0 kg/ha)
1 | Brn1c(-c2ccccc2)cc(-c2ccccc2)[n+]1Br.O=[N+]([O-])[N-]c1c(Br)cccc1Br [1,2-Dibromo-3,5-diphenylpyrazolium salt with 2,6-dibromo-N--aci-nitroaniline] | 4 | 5 (No increase over controls) | 6.9 | 59.2 | 58.2 | 5 (No increase over controls) | 4 | 5 (No increase over controls) | 6.7 | 60.7 | 53.3 | 5 (No increase over controls) | 3 (Moderate, significant increase over controls.) | 3 (Moderate, significant increase over controls.) | 5.9 | 60.4 | 52.3 | 5 (No increase over controls)
2 | Cn1c(-c2ccccc2)cc(-c2ccccc2)[n+]1C.O=[N+]([O-])[N-]c1cccc(Cl)c1Cl [1,2-Dimethyl-3,5-diphenylpyrazolium salt with 2,3-dichloro-N--aci-nitroaniline] | 5 (No increase over controls) | 5 (No increase over controls) |  | 51.2 | 56.3 | 5 (No increase over controls) | 5 (No increase over controls) | 5 (No increase over controls) |  | 52.6 | 54.7 | 5 (No increase over controls) | 5 (No increase over controls) | 5 (No increase over controls) | 6.0 | 57.3 | 55.5 | 5 (No increase over controls)
3 | Cn1c(-c2ccccc2)cc(-c2ccccc2)[n+]1C.O=[N+]([O-])[N-]c1ccccc1Br [1,2-Dimethyl-3,5-diphenylpyrazolium salt with 2-Bromo-N--aci-nitroaniline] | 4 | 4 |  | 51.0 | 52.5 | 5 (No increase over controls) | 5 (No increase over controls) | 5 (No increase over controls) |  | 53.5 | 50.6 | 5 (No increase over controls) | 5 (No increase over controls) | 5 (No increase over controls) |  | 47.4 | 50.0 | 5 (No increase over controls)
4 | O=[N+]([O-])Nc1ccc(Br)cc1Br [2,4-Dibromo-N--nitroaniline] | 3 (Moderate, significant increase over controls.) | 4 | 7.8 | 63.5 | 54.7 | 5 (No increase over controls) | 5 (No increase over controls) | 5 (No increase over controls) | 6.7 | 56.3 | 56.0 | 5 (No increase over controls) | 5 (No increase over controls) | 5 (No increase over controls) |  | 46.4 | 53.3 | 5 (No increase over controls)
5 | O=[N+]([O-])N(F)c1c(Br)cccc1Br [2,6-Dibromo-N--fluoro-N--nitroaniline] | 4 | 4 | 6.0 | 57.8 | 52.0 | 5 (No increase over controls) | 5 (No increase over controls) | 5 (No increase over controls) |  | 52.6 | 51.0 | 5 (No increase over controls) | 5 (No increase over controls) | 4 |  | 49.2 | 45.2 | 5 (No increase over controls)
6 | O=[N+]([O-])Nc1c(Br)cccc1Br [2,6-Dibromo-N--nitroaniline] | 4 | 4 | 6.2 | 58.3 | 50.5 | 5 (No increase over controls) | 4 | 3 (Moderate, significant increase over controls.) | 6.9 | 67.5 | 53.0 | 5 (No increase over controls) | 4 | 3 (Moderate, significant increase over controls.) | 5.4 | 55.8 | 48.3 | 5 (No increase over controls)
7 | N#Cc1ccc(N[N+](=O)[O-])c(Br)c1 [2-Bromo-4-cyano-N--nitroaniline] | 5 (No increase over controls) | 4 | 7.4 | 62.2 | 53.0 | 5 (No increase over controls) | 5 (No increase over controls) | 4 | 7.0 | 59.2 | 53.3 | 5 (No increase over controls) | 5 (No increase over controls) | 5 (No increase over controls) | 7.0 | 60.9 | 53.2 | 5 (No increase over controls)
8 | CCc1cccc(C(C)C)c1N[N+](=O)[O-] [2-Ethyl-6-isopropyl-N--nitroaniline] | 4 | 4 |  | 50.5 | 47.7 | 5 (No increase over controls) | 4 | 3 (Moderate, significant increase over controls.) | 5.9 | 59.3 | 48.7 | 5 (No increase over controls) | 4 | 4 | 5.4 | 56.5 | 51.0 | 5 (No increase over controls)
9 | Cc1cc(C)c(N[N+](=O)[O-])c(I)c1 [2-Iodo-4,6-dimethyl-N--nitroaniline] | 5 (No increase over controls) | 5 (No increase over controls) |  | 54.1 | 52.7 | 5 (No increase over controls) | 5 (No increase over controls) | 5 (No increase over controls) |  | 52.7 | 52.5 | 5 (No increase over controls) | 5 (No increase over controls) | 5 (No increase over controls) | 6.2 | 58.0 | 53.5 | 5 (No increase over controls)
10 | O=[N+]([O-])Nc1c(Br)cccc1Br [Sodium salt of 2,6-dibromo-N--nitroaniline] | 4 | 4 |  | 55.6 | 50.2 | 5 (No increase over controls) | 4 | 3 (Moderate, significant increase over controls.) | 6.4 | 57.6 | 47.2 | 5 (No increase over controls) | 3 (Moderate, significant increase over controls.) | 3 (Moderate, significant increase over controls.) |  | 55.5 | 47.0 | 5 (No increase over controls)
11 | O=[N+]([O-])Nc1cccc(Cl)c1Cl [Sodium salt with 2,3-dichloro-N--nitroaniline] | 5 (No increase over controls) | 5 (No increase over controls) | 8.2 | 60.9 | 53.3 | 5 (No increase over controls) | 5 (No increase over controls) | 5 (No increase over controls) | 7.1 | 58.7 | 53.8 | 5 (No increase over controls) | 5 (No increase over controls) | 5 (No increase over controls) | 6.0 | 57.5 | 52.2 | 5 (No increase over controls)
